Values after ≈ are worked out from the molar mass of the structure shown. Counter-ions that a name gives are not always drawn.
Assays:
[1] = test system: HeLa.S3 cell; experiment: Enhancement of cytocidal effect: colony formation of HeLa S3 cells, known carcinostatic drug added simultaneously with the compound of the present invention, 7 days; format: cell-based, human; conditions: for enhancement of the cytocidal effect of a carcinostatic drug: conclusion in words from the figures of Table 2 (CPM by the S9 mix protocol)
Protocol: Effect of the simultaneous use of a known carcinostatic agent and the compound (I) (Enhancement of cytocidal effect) • (1) Experimental material and procedure • ① Cell: Epithelical cell from human uterocervical cancer, HeLa.S3 cell • ② Cultivation: The cell was cultivated using a culture fluid obtained by adding 10 parts of fetal calf serum to 90 parts of Eagles Minimum Essential Medium in an incuvator having a carbon dioxide concentration controlled to 5% at 37°C. • ③ Drug: The compound of the present invention was added as a solution in dimethyl sulfoxide(DMSO) of a final DMSO concentration of 0.1% to the culture fluid. The clinical injections as shown in Table 1 were added to the culture fluid as a known carcinostatic drug. […] After the cultivation for 7 days, the cells were fixed with methanol and subjected to Giemsa's staining, followed by calculation of the number of colonies containing at least 20 cells under a stereomicroscope. The concentration (ng/mℓ) of the carcinostatic drug required to decrease the ratio of the number of colonies of a treated group to that of an untreated group (control) to 50% were determined and are shown as "IC50".

[2] = test system: HeLa.S3 cell; experiment: cells; conditions: Homo sapiens
Protocol: The clinical injections as shown in Table 1 were added to the culture fluid as a known carcinostatic drug. [formula] • ④ Experimental procedure: 150 epithelical cells from human uterocervical cancer (HeLaS3 cell) were planted in each plastic dish of a diameter of 60 mm. […] After the cultivation for 7 days, the cells were fixed with methanol and subjected to Giemsa's staining, followed by calculation of the number of colonies containing at least 20 cells under a stereomicroscope. The concentration (ng/mℓ) of the carcinostatic drug required to decrease the ratio of the number of colonies of a treated group to that of an untreated group (control) to 50% were determined and are shown as "IC50".

[3] = Toxicological test, oral administration for 14 days; format: in vivo; conditions: female ICR mice, orally, 14 days, 40, 200 or 400 mg/kg/day
Protocol: The compound of the present invention, 3,7,11,15-tetramethyl-2,4,6,10,14-hexadecapentaenoic acid, was administered orally to each group consisting of six female ICR mice for 14 days at a dosage of 40, 200 or 400 mg/kg/day, respectively, to observe changes in the weight, the mortality or the like.

[4] = Homo sapiens, HeLa S3, compound of the present invention 0 M; listed as 1): based on case where both compound and drug are 0, read-out: IC50 (ng/ml) 0 a)
[5] = Homo sapiens, HeLa S3, compound of the present invention 0 M; listed as 2): based on case where drug is 0 at the same compound concentration, read-out: IC50 (ng/ml) 0 a)
[6] = Homo sapiens, HeLa S3, compound of the present invention 3.2×10^-5 M; listed as 1): based on case where both compound and drug are 0, read-out: IC50 (ng/ml) 3.2×10^-5 d)
[7] = Homo sapiens, HeLa S3, compound of the present invention 3.2×10^-5 M; listed as 2): based on case where compound is 3.2×10^-5 M and drug is 0, read-out: IC50 (ng/ml) 3.2×10^-5 d)
[8] = Homo sapiens, HeLa S3, compound of the present invention 10^-5 M; listed as 1): based on case where both compound and drug are 0, read-out: IC50 (ng/ml) 10^-5 c)
[9] = Homo sapiens, HeLa S3, compound of the present invention 10^-5 M; listed as 2): based on case where compound is 10^-5 M and drug is 0, read-out: IC50 (ng/ml) 10^-5 c)
[10] = Homo sapiens, HeLa S3, compound of the present invention 10^-6 M; listed as 1): based on case where both compound and drug are 0, read-out: IC50 (ng/ml) 10^-6 b)
[11] = Homo sapiens, HeLa S3, compound of the present invention 10^-6 M; listed as 2): based on case where compound is 10^-6 M and drug is 0, read-out: IC50 (ng/ml) 10^-6 b)

Compound	enhancement of the cytocidal effect of a carcinostatic drug [1]	IC50 [1, 4] [ng/mL]	IC50 [1, 5] [ng/mL]	IC50 [1, 6] [ng/mL]	IC50 [1, 7] [ng/mL]	IC50 [1, 8] [ng/mL]	IC50 [1, 9] [ng/mL]	IC50 [1, 10] [ng/mL]	IC50 [1, 11] [ng/mL]	other results
Cc1c(N)nc([C@H](CC(N)=O)NC[C@H](N)C(N)=O)nc1C(=O)N[C@H](C(=O)N[C@H](C)[C@@H](O)[C@H](C)C(=O)N[C@H](C(=O)NCCc1nc(-c2nc(C(=O)NCCCN[C@@H](C)c3ccccc3)cs2)cs1)[C@@H](C)O)[C@@H](O[C@@H]1O[C@@H](CO)[C@@H](O)[C@H](O)[C@@H]1O[C@H]1O[C@H](CO)[C@@H](O)[C@H](OC(N)=O)[C@@H]1O)c1c[nH]cn1.O=S(=O)(O)O [PEP, pepleomycin sulfate]	particularly remarkable									
Cc1ncc(CNC(=O)N(CCCl)N=O)c(N)n1 [ACNU, minustine hydrochloride]		135	135	102	136	146	150	143	147	
O=c1[nH]cc(F)c(=O)[nH]1 [5-FU, fluorouracil]	particularly remarkable	648	648	267	347	329	369	375	388	
CO[C@@]12[C@H](COC(N)=O)C3=C(C(=O)C(C)=C(N)C3=O)N1C[C@@H]1N[C@@H]12 [MMC, mitomycin]	particularly remarkable	1.5	1.5	0.4	0.84	0.74	0.82	1.05	1.06	
COc1cccc2c1C(=O)c1c(O)c3c(c(O)c1C2=O)C[C@@](O)(C(=O)CO)C[C@@H]3O[C@H]1C[C@H](N)[C@H](O)[C@H](C)O1 [ADM, doxorubicin hydrochloride]		3.79	3.79	1.88	3.14	2.43	4.15	3.1	3.51	
CC[C@]1(O)C[C@H]2CN(CCc3c([nH]c4ccccc34)[C@@](C(=O)OC)(c3cc4c(cc3OC)N(C=O)[C@H]3[C@@](O)(C(=O)OC)[C@H](OC(C)=O)[C@]5(CC)C=CCN6CC[C@]43[C@@H]65)C2)C1 [VCR, vincristine sulfate]		5.5	5.5	2.63	5.65	6.38	7.7	7.44	7.45	
S=P(N1CC1)(N1CC1)N1CC1 [Thio-TEPA, Thio TEPA]										IC50 ([1]; Homo sapiens, HeLa S3, read-out: IC50 (ng/ml) 0 a), compound of the present invention 0 M; 1): based on case where both compound and drug are 0): 311 ng/mL; IC50 ([1]; Homo sapiens, HeLa S3, read-out: IC50 (ng/ml) 0 a), compound of the present invention 0 M; listed as 2): based on case where drug is 0 at the same compound concentration): 311 ng/mL; IC50 ([1]; Homo sapiens, HeLa S3, read-out: IC50 (ng/ml) 3.2×10^-5 d), compound of the present invention 3.2×10^-5 M; 2): based on case where compound is 3.2×10^-5 M and drug is 0): 244 ng/mL; IC50 ([1]; Homo sapiens, HeLa S3, read-out: IC50 (ng/ml) 3.2×10^-5 d), compound of the present invention 3.2×10^-5 M; listed as 1): based on case where both compound and drug are 0): 274 ng/mL; IC50 ([1]; Homo sapiens, HeLa S3, read-out: IC50 (ng/ml) 10^-5 c), compound of the present invention 10^-5 M; listed as 1): based on case where both compound and drug are 0): 299 ng/mL; IC50 ([1]; Homo sapiens, HeLa S3, read-out: IC50 (ng/ml) 10^-5 c), compound of the present invention 10^-5 M; listed as 2): based on case where compound is 10^-5 M and drug is 0): 319 ng/mL; IC50 ([1]; Homo sapiens, HeLa S3, read-out: IC50 (ng/ml) 10^-6 b), compound of the present invention 10^-6 M; 2): based on case where compound is 10^-6 M and drug is 0): 291 ng/mL; IC50 ([1]; Homo sapiens, HeLa S3, read-out: IC50 (ng/ml) 10^-6 b), compound of the present invention 10^-6 M; listed as 1): based on case where both compound and drug are 0): 274 ng/mL
COC(COC(N)=O)C1=C(N2CC2)C(=O)C(C)=C(N2CC2)C1=O (centres unmarked) [CQ, carboquone]	particularly remarkable	0.339	0.339	0.076	0.131	0.242	0.275	0.273	0.253	
O=P1(N(CCCl)CCCl)NCCCO1 (centres unmarked) [CPM, cyclophosphamide]	particularly remarkable									IC50 ([2]; HeLa S3, read-out: IC50 (ng/ml) 0 a), S9 mix protocol; compound of the present invention 0 M; listed as 1): based on case where both compound and drug are 0): 4210 ng/mL (≈ 16.1 µM); IC50 ([2]; HeLa S3, read-out: IC50 (ng/ml) 0 a), S9 mix protocol; compound of the present invention 0 M; listed as 2): based on case where drug is 0 at the same compound concentration): 4210 ng/mL (≈ 16.1 µM); IC50 ([2]; HeLa S3, read-out: IC50 (ng/ml) 3.2×10^-5 d), S9 mix protocol; compound of the present invention 3.2×10^-5 M; listed as 1)): 1220 ng/mL (≈ 4.69 µM); IC50 ([2]; HeLa S3, read-out: IC50 (ng/ml) 3.2×10^-5 d), S9 mix protocol; compound of the present invention 3.2×10^-5 M; listed as 2)): 2300 ng/mL (≈ 8.82 µM); IC50 ([2]; HeLa S3, read-out: IC50 (ng/ml) 10^-5 c), S9 mix protocol; compound of the present invention 10^-5 M; listed as 1)): 1330 ng/mL (≈ 5.08 µM); IC50 ([2]; HeLa S3, read-out: IC50 (ng/ml) 10^-5 c), S9 mix protocol; compound of the present invention 10^-5 M; listed as 2)): 1970 ng/mL (≈ 7.56 µM); IC50 ([2]; HeLa S3, read-out: IC50 (ng/ml) 10^-6 b), S9 mix protocol; compound of the present invention 10^-6 M; listed as 1)): 3360 ng/mL (≈ 12.9 µM); IC50 ([2]; HeLa S3, read-out: IC50 (ng/ml) 10^-6 b), S9 mix protocol; compound of the present invention 10^-6 M; listed as 2)): 3160 ng/mL (≈ 12.1 µM)
CC(C)=CCCC(C)=CCCC(C)=CC=CC(C)=CC(=O)O [compound of the present invention, 3,7,11,15-tetramethyl-2,4,6,10,14-hexadecapentaenoic acid]	synergisticly enhances the cytocidal effect of a carcinostatic drug									mortality [3]: No mice died
Nc1ccn([C@@H]2O[C@H](CO)[C@@H](O)[C@@H]2O)c(=O)n1 [Ara-C, cytarabine]		10.9	10.9	6.25	11.6	11.4	12.4	11.9	12	
bleomycin hydrochloride [BLM]	particularly remarkable									

Reference: patent EP0175171A2, “Use of 3,7,11,15-tetramethyl-2,4,6,10,14-hexadecapentaenoic acid for enhancing the effect of anti-tumour agents” (Eisai Co., Ltd., priority 1984, dated 1986)
